US20070059385A1, “Safe pharmaceutical composition for treating and preventing cancer and method of use” (priority 2005, published 2007)

How the values were obtained:
gastric cancer cells = experiment: Cellular diversion of gastric cancer cells (NBT); assay type: cell-based
Method: The gastric cancer cells and normal cells were cultured in PRMI 1640 medium supplement with 10% FCS serum. Other method is similar to example 8.

cancer cells = experiment: Inhibition of tumor cell proliferation; assay type: cell-based; settings: Homo sapiens; 1 μg/ml drug, 72 hours; read-out: Inhibition (%) of growth of cancer cells
Method: Human tumor cell lines: Hela leukemia HL-60, malignant melanocarcinoma B 16, oral epidermoid carcinoma (KB), lung carcinoma (A549), breast carcinoma MCF-7, adenocarcinoma of stomach.
Animal tumor cell lines: Walker carcinoma, LLC-WRC-256, malignant melanoma (RMMI 1846), 3T3, and S-1 80 sarcoma (CCRF-180). All lines were routinely cultured in the RPMI1640 medium supplemented 20% fetal calf serum. The experiment was carried out in 96 microplate, each well had 5×10^5 cells and given desired concentration of 1 μg/ml (1×10^−6 g/ml) drug. Then the plate was incubated at 37° C. in an atmosphere of humidified air enriched with 5 percent carbon dioxide for 72 hours. Inhibition percent rate of tumor cell proliferation was obtained according to the bellow formula. [formula]

L615 transplanted tumor = experiment: Growth of transplanted tumor in mice; assay type: in vivo; settings: intraperitoneally, sacrificed on the 12th day
Method: Male mice, weight 20-22 g, were used in the experiment. 1×10^7 tumor cells were injected to mouse and other drugs injected intraperitoneally began second day. All mice were sacrificed on the 12th day, isolated the tumor and weighed and calculated the inhibition rate of tumor weight.
The effect of other drugs and HHT on the growth of animal transplanted tumor as illustrated by the Table 6.20 mg/kg of other drugs could inhibit the growth of L615 transplanted tumor.

tyrosine kinase (TK) = experiment: Tyrosine kinase (TK) assay in HL-60 leukemia cells; assay type: cell-based, human
Method: Tyrosine kinase (TK) Assay: TK was measured by a modification of the method of Braun et al. Briefly, H-60 leukemia cells were plated at a density of 5×10^5 cells in […], and divided control and treatments groups for incubation 24 hours at 37° C. with 5% CO2. The cells were collected by scraping, washed twice with phosphate-buffered saline, and resuspended at density of 10^6 cells/ml in 5 mM HEPEs buffer (pH 7.4). The cells were then resuspended in 1 ml of buffer containing 5 mM HEPES (pH 7.6), 1 mM MgCl2 and 1 mM EDTA, then placed on ice bath. The cell membrane was disrupted by ultra sound and centrifuged at 1,000×g for 10 minutes. The supernatant was ultra centrifuged at 30,000×g for 30 minutes at 4° C. The pellet was resuspended in 0.3 ml of buffer containing 25 mM HEOES, centrifuged at 12,000×g for 5 minutes. The resulting supernatant was used for TK assay. Content of protein was determined. 10 μg of protein placed in 20 mM HEPES (pH 7.6), 15 mM MgCl2, 10 mM ZnCl2 and 5% (v/v) nonidet P-40, with or without substrate [glutamic acid (GT), mg/ml]. After 5 minutes incubation at 25° C., the reaction was initiated by the addition of 25 μM [γ^32P] ATP (3 ci/mmol). After 10 minutes, the reaction was stopped by the addition of 20 mM cold ATP. 50 μl of the mixtures were spotted on glass microfiber filter discs and washed three times with cold trichloroacetic acid (TCA), contained 10 mM sodium pyrophosphate. Air dried. Radioactivity was determined by liquid scintillation spectrometry. The net TK activity was determined after correcting for endogenous TK activity.

[1] = tested on: NNK-induced lung tumorigenesis; experiment: NNK-induced lung tumorigenesis; assay type: in vivo; settings: mice; drug 20 mg/kg daily by injection; 10 μmol NNK i.p.; pulmonary adenomas after sixteen weeks
Method: Every group had 20 mice. […] For control group, each mouse was gave same volume of physiological saline. Three days later, mice were gave 10 μmol NNK (in 0.1 ml saline) by i.p. injection. Sixteen weeks after these treatments the mice were killed and pulmonary adenomas were counted. The statistical significance of bioassay data was determined by student's test.

[2] = Toxic dose for mice (LD50); assay type: in vivo
kidney cell cultures = experiment: Analysis of chromosomes (chromosomal aberrations in kidney); assay type: in vivo
Method: For metaphase chromosomes, kidney cell cultures were treated with colchicines (0.4 μg/ml) for 3-4 hours. The cells were then trypsinized and treated with hypotonic solution (0.075 M KCl) at 37° C. for 30 minutes. The cell suspensions were centrifuged and the pellets fixed in cold acetic acid:methanol (1:3) solution. Slides were prepared by standard air-drying method and stained with 2% Giemsa solution. The results scored by analyzing at least 200 well spread metaphases with 44±2 chromosomes for gaps, chromatid and chromosome breaks and exchanges, and association. Chromatid and chromosome aberrations were scored separately, and the total percentage was subjected to statistical analysis. Gaps were recorded but not included in the total frequency. Endoreduplication (endomitosis) was estimated from at least 500 cells/animal and expressed as a percentage.

[3] = tested on: salmonella typhimurium strains TA97, TA98 and TA100; experiment: Salmonella mutagenicity assay, overall conclusion; settings: conclusion from Table 14
Method: The method for detecting mutagenicity of HHT, with the Salmonella system that detects the reversion of the bacteria from His^− to His^+, is widely used.
The bacterial tester strains used for mutagenesis testing are TA97, TA98, TA100 and TA102. Mutagenesis testing method was done as described previously ^[77-88]. In brief, TA97, TA98, TA100 and TA102 were grown in agar gel culture. The petri plats (100×15 mm style) contain 30 ml with 2% glucose. The agar mixture was agitated vigorously and immediately poured into plates of minimal agar. The cultures were incubated at 37° C. in a dark and 5% CO2 in air for 48 hours. After 48 hours the colonies in both test and controls are counted. The presence of a background lawn of bacteria on the histidine-poor soft agar plate was used as an indication that gross toxic effects were absent. Mutagenicity assays were carried out at least in triplicate.
The range of spontaneous mutation rates for the individual strains, which were considered to be acceptable, was TA97 (100-170), TA98 (20-40) and TA100 (80-150).

[4] = duration of treatment 0.5 months
[5] = duration of treatment 1.0 months
[6] = duration of treatment 2.0 months
[7] = duration of treatment 3.0 months
[8] = duration of treatment 4.0 months
[9] = duration of treatment 5.0 months

For `COC(=O)C[C@](O)(CCCC(C)(C)O)C(=O)O[C@@H]1C(OC)=C[C@]23CCCN2CCc2cc4c(cc2[C@H]13)OCO4` [HHT, Homoharringtonine], the “NBT (%)” value (gastric cancer cells) was 58 ± 8.9 %, the inhibition at 1 µg/mL (cancer cells) was 73.8 ± 8.1% and the “Inhibition (%) of transplanted tumor (tumor weight)” value (L615 transplanted tumor) was 68 ± 7.2%. The “inhibition of HL-60 TK activity” value (tyrosine kinase (TK); 10^−7 M) was 78.5%, the “inhibition of HL-60 TK activity” value (tyrosine kinase (TK); 10^−8 M) was 12.2% and the “% of control activity (TK)” value (tyrosine kinase (TK); HL-60 leukemia cells, 10^−6 M) was 0.6%. For the same molecule, the “% of control activity (TK)” value (tyrosine kinase (TK); HL-60 leukemia cells, 10^−8 M) was 87.8 ± 12%, the “% of control activity (TK)” value (tyrosine kinase (TK); Table 8, concentration not given) was 21.5 ± 4.0% and the “Tumor incidence (%)” value [1] was 35.8 ± 4.5%. The mice died ([2]; 38 normal mice, 2 mg/kg/day×5, observation period of 5 days) was “about 50%”, the LD50 ([2]; mouse, in vivo, ip, mice, I.P.) was 3.17 ± 0.19 mg/kg and the “% Aberrant cells (mean ± SEM)” value (kidney cell cultures; [4]) was 0.5 ± 0.1%. The “Aberration/100 cells, Chromosome Breaks” value (kidney cell cultures; [4]) was 0.1 /100 cells, the “% Aberrant cells (mean ± SEM)” value (kidney cell cultures; [5]) was 0.8 ± 0.2% and the “Aberration/100 cells, Chromosome Breaks” value (kidney cell cultures; [5]) was 0.5 /100 cells. For the same molecule, the “% Aberrant cells (mean ± SEM)” value (kidney cell cultures; [6]) was 1.2 ± 0.4%, the “Aberration/100 cells, Chromosome Breaks” value (kidney cell cultures; [6]) was 0.7 /100 cells and the “Aberration/100 cells, Chromosome Exchanges” value (kidney cell cultures; [6]) was 0.1 /100 cells. The “% Aberrant cells (mean ± SEM)” value (kidney cell cultures; [7]) was 1.8 ± 0.7%, the “Aberration/100 cells, Chromosome Breaks” value (kidney cell cultures; [7]) was 0.9 /100 cells and the “% Aberrant cells (mean ± SEM)” value (kidney cell cultures; [8]) was 2.6 ± 0.8%. The “Aberration/100 cells, Chromosome Breaks” value (kidney cell cultures; [8]) was 1.2 /100 cells, the “Aberration/100 cells, Chromosome Exchanges” value (kidney cell cultures; [8]) was 0.1 /100 cells and the “% Aberrant cells (mean ± SEM)” value (kidney cell cultures; [9]) was 5.5 ± 0.5%. For the same molecule, the “Aberration/100 cells, Chromosome Breaks” value (kidney cell cultures; [9]) was 1.3 /100 cells, the “Aberration/100 cells, Chromosome Exchanges” value (kidney cell cultures; [9]) was 0.2 /100 cells and the “carcinogenic and mutagenic action” value [3] was “no carcinogenic and mutagenic action”.
